In PubChem BioAssay AID1508612:
Several values for one entry are separate records, joined by “and”; a condition that tells them apart may be missing. Equal entries are not always repeated.

Test: passive permeability, PAMPA, ADME assay (AID 1508612)
Conditions: pH 7.4, 30.0 min, 50.0 µM
`c1ccc2c(Nc3ccc4nc[nH]c4c3)nc(-c3ccncc3)nc2c1` gave a Papp of 16.7 ×10⁻⁶ cm/s.
In the case of `CS(=O)(=O)c1ccc(-c2cnc(NCc3ccco3)n3cnnc23)cc1`, the Papp is reported as 16.7 ×10⁻⁶ cm/s.
In the case of `O=C(Nc1ccc2oc(-c3cccnc3)nc2c1)c1ccc(-c2ccccc2)o1`, the Papp is reported as 771 ×10⁻⁶ cm/s.
`C#CCNC(=O)c1nc(-c2ccc(Cl)nc2)c2ccccn12` gave a Papp of 802 ×10⁻⁶ cm/s.
For `CCOP(=O)(Cc1ccc(C(=O)Nc2ccc(Br)cc2C#N)cc1)OCC`, the Papp was 255 ×10⁻⁶ cm/s.
`Cc1cn2c(-c3cn[nH]c3)cnc2c(Nc2ccc(C(=O)N3CCNCC3)cc2F)n1` gave a Papp of less than 1 ×10⁻⁶ cm/s.
Compound `COC(=O)CNC(=O)c1nc(-c2ccc(F)cc2)c2ccccn12` has a Papp greater than 1000 ×10⁻⁶ cm/s.
Work on `Oc1ccc(CNc2ccccc2F)c2cccnc12` yielded a Papp of 34 ×10⁻⁶ cm/s.
`CCOc1cc(-c2nccc3cc(OC)c(OC)cc23)cc(OCC)c1OCC` gave a Papp greater than 1000 ×10⁻⁶ cm/s.
Compound `Cc1cc(C)nc(NC(=S)N2CCN(c3cccc(OC(F)F)c3)CC2)c1` has a Papp of 852 ×10⁻⁶ cm/s.
`COc1cc(Nc2nc(-c3ccncc3)nc3ccccc23)ccc1NS(C)(=O)=O` gave a Papp greater than 1000 ×10⁻⁶ cm/s.
Compound `O=C(Nc1nc(-c2ccccn2)cs1)c1cccc(S(=O)(=O)N2CCOCC2)c1` has a Papp of 657 ×10⁻⁶ cm/s.
For `COc1cccc(CN2CCCC(c3nc(-c4ccncc4)ncc3-c3ccccc3)C2)c1O` (configuration not stated), the Papp was greater than 1000 ×10⁻⁶ cm/s.
`COc1cc(-c2nc(-c3c(C)noc3C)cc3c2cc(C)n3CCN(C)C)ccn1` gave a Papp greater than 1000 ×10⁻⁶ cm/s.
For `Cc1c(NC2=C(Cl)C(=O)N(c3ccccc3)C2=O)c(=O)n(-c2ccccc2)n1C`, the Papp was 123 ×10⁻⁶ cm/s.
In the case of `COc1ccc(NC(=O)c2[nH]c(C)cc2C)cc1S(=O)(=O)Nc1ccc(Br)cc1`, the Papp is reported as greater than 1000 ×10⁻⁶ cm/s.
Work on `CCN(CC)CCNC(=O)C1CCN(c2nn3cc(-c4ccc(F)cc4)nc3s2)CC1` yielded a Papp greater than 1000 ×10⁻⁶ cm/s.
`COCCNC(=O)c1ccc(Cn2c(=S)[nH]c3cc4c(cc3c2=O)OCO4)cc1` showed a Papp of 108 ×10⁻⁶ cm/s.
For `CCOc1ccc(CCNC(=O)c2cc3sccc3n2Cc2ccccn2)cc1OCC`, the Papp was greater than 1000 ×10⁻⁶ cm/s.
`CCN1C(=O)c2ccccc2S(=O)c2ccc(C(=O)NCc3ccccc3)cc21` (configuration not stated) gave a Papp of 775 ×10⁻⁶ cm/s.
In the case of `O=C(c1ccc2c(c1)ncn2-c1cccc(Cl)c1)N1CCCCC1`, the Papp is reported as 895 ×10⁻⁶ cm/s.
With `N#Cc1ccccc1-c1csc(N2CCC(C(N)=O)CC2)n1` the Papp was 343 ×10⁻⁶ cm/s.
For `COc1cc(C(=S)N2CCN(CCO)CC2)ccc1OCc1ccc(C)cc1`, the Papp was greater than 1000 ×10⁻⁶ cm/s.
`CS(=O)(=O)c1cccc(-c2csc(N3CCC(C(N)=O)CC3)n2)c1` gave a Papp of 49.1 ×10⁻⁶ cm/s.
For `Cc1cc(NS(=O)(=O)c2ccc(NC(=O)Cc3ccc(F)c(Cl)c3)cc2)no1`, the Papp was 10.4 ×10⁻⁶ cm/s.
Compound `CN1C(=O)CN=C(c2ccccc2Cl)c2cc(Cl)ccc21` has a Papp greater than 1000 ×10⁻⁶ cm/s.
`Nc1nc2c(s1)C(c1cccc(F)c1F)CC(=O)N2` (configuration not stated) showed a Papp of 9.86 ×10⁻⁶ cm/s.
Compound `COC(=O)Nc1nc2ccc(C(=O)c3ccccc3)cc2[nH]1` has a Papp of 282 ×10⁻⁶ cm/s.
In the case of `COc1ccc(-c2ccc3nc(-c4ccccc4C)oc3c2)c(OC)c1OC`, the Papp is reported as less than 1 ×10⁻⁶ cm/s.
With `O=C(CCS(=O)(=O)c1nc(-c2cccs2)cc(C(F)(F)F)n1)Nc1ccc(OC(F)(F)F)cc1` the Papp was 5.76 ×10⁻⁶ cm/s.
`Fc1cc(Nc2nc(-c3ccncc3)nc3ccccc23)ccc1-c1ccncc1` showed a Papp of 15.4 ×10⁻⁶ cm/s.
Work on `Cc1ccc(-c2cc(C(=O)Nc3ccc(-c4noc(=O)[nH]4)cc3)c3ccccc3n2)cc1C` yielded a Papp of 3 ×10⁻⁶ cm/s.
Compound `CS(=O)(=O)CCNCc1ccc(-c2ccc3ncnc(Nc4ccc(OCc5cccc(F)c5)c(Cl)c4)c3c2)o1` has a Papp of less than 1 ×10⁻⁶ cm/s.
For `NC(=O)C1CCN(c2nc(-c3cccc4sc5ccccc5c34)cs2)CC1`, the Papp was 364 ×10⁻⁶ cm/s.
In the case of `CCN1C(=O)c2ccccc2[S@](=O)c2ccc(C(=O)NCc3ccc(F)cc3)cc21`, the Papp is reported as greater than 1000 ×10⁻⁶ cm/s.
With `Cc1ccc2oc3c(c(=O)c2c1)C(c1cccc(O)c1)N(CCCN1CCOCC1)C3=O` (configuration not stated) the Papp was 103 ×10⁻⁶ cm/s.
In the case of `COC(=O)c1ccnc(-c2cc(C(=O)Nc3ccc(C4(N)CC4)cc3)ccn2)c1`, the Papp is reported as greater than 1000 ×10⁻⁶ cm/s.
With `Cn1ccc2c(C(=O)NCC3CCC(=O)N3)nc(-c3ccccc3C#N)cc21` (configuration not stated) the Papp was 265 ×10⁻⁶ cm/s.
With `Cc1ccc(S(=O)(=O)Nc2cnccc2C(=O)Nc2ccc(-n3cncn3)cc2)cc1` the Papp was 8.29 ×10⁻⁶ cm/s.
`CC(=O)N1CCc2c(sc3c2c(=O)n(-c2ccccc2)c(=O)n3Cc2cccc(C(F)(F)F)c2)C1` gave a Papp greater than 1000 ×10⁻⁶ cm/s.
`COC(=O)Nc1nc2ccc(Sc3ccccc3)cc2[nH]1` gave a Papp of 197 ×10⁻⁶ cm/s.
`COc1ccc(C(=O)Nc2nc(-c3ccccc3)cs2)c(OC)c1` gave a Papp greater than 1000 ×10⁻⁶ cm/s.
In the case of `CCC(=O)NC(c1ccc(OC)cc1)c1cc(Cl)c2cccnc2c1O` (configuration not stated), the Papp is reported as 687 ×10⁻⁶ cm/s.
Work on `Cc1ccc(N2CCC(CNc3nc(-c4ccccc4C(C)C)ncc3F)CC2)cn1` yielded a Papp greater than 1000 ×10⁻⁶ cm/s.
Compound `O=C1CCCC2=C1C(c1[nH]ncc1Cl)N=C(Nc1nc3cc(F)ccc3o1)N2` (configuration not stated) has a Papp of 647 ×10⁻⁶ cm/s.
Work on `O=C(Nc1cccc(C(F)(F)F)c1)c1ccccc1NC(=O)C1CCCCC1` yielded a Papp of less than 1 ×10⁻⁶ cm/s.
With `COc1cccc(CNc2ccc(S(=O)(=O)Nc3nccs3)cc2)c1O` the Papp was 35.8 ×10⁻⁶ cm/s.
In the case of `COc1ccc(OC)c(-c2nnc3n2N=C(c2c(OC)cccc2OC)CS3)c1`, the Papp is reported as 617 ×10⁻⁶ cm/s.
With `COc1ccnc(NC(=S)N2CCN(c3cc(C(F)(F)F)cc(C(F)(F)F)c3)CC2)c1` the Papp was 373 ×10⁻⁶ cm/s.
`CCn1c(C)c(C(C)=O)c(C)c1C(=O)Nc1cccc([S+](=O)([O-])N(C)C)c1` showed a Papp of 405 ×10⁻⁶ cm/s.
`CN(Cc1ccccc1)C(=O)C1CCN(Cc2cccc3ccccc23)CC1` showed a Papp greater than 1000 ×10⁻⁶ cm/s.
Work on `Cc1ccc(-c2nc(C)c(C(=O)Nc3ccc4c(c3)C(=O)N3CCC[C@H]3C(=O)N4)s2)cc1` yielded a Papp of 976 ×10⁻⁶ cm/s.
With `N#CC1CCN(c2nc(-c3ccc(Br)cc3)cs2)CC1` the Papp was 671 ×10⁻⁶ cm/s.
With `O=C(c1ccccc1)N1CCC(C(=O)N2CCC(N3Cc4ccccc4C3=O)CC2)CC1` the Papp was 24.9 ×10⁻⁶ cm/s.
In the case of `Cc1cc(C)nc(NC(=S)N2CCN(c3cccc(C(F)(F)F)c3)CC2)c1`, the Papp is reported as 593 ×10⁻⁶ cm/s.
With `O=C(NCc1cccnc1)c1nc(-c2ccc(Cl)nc2)c2cnccn12` the Papp was 238 ×10⁻⁶ cm/s.
Work on `Cc1ccc(S(=O)(=O)Nc2cnccc2C(=O)Nc2nc(-c3ccc(-c4ccccc4)cc3)cs2)cc1` yielded a Papp of 5.92 ×10⁻⁶ cm/s.
`O=C1CCCC2=C1C(c1[nH]ncc1Cl)N=C(Nc1nc3ccc(F)cc3o1)N2` (configuration not stated) showed a Papp of 653 ×10⁻⁶ cm/s.
Compound `Cc1ccc(-c2cc(C(=O)NC3CCCCC3)c3ccccc3n2)cc1` has a Papp greater than 1000 ×10⁻⁶ cm/s.
`c1ccc2c(Nc3ccon3)nc(-c3ccncc3)nc2c1` showed a Papp of 247 ×10⁻⁶ cm/s.
`O=C(O)c1ccc(O)c2ncc(N3CCCN(CCc4cccc5ccccc45)CC3)cc12` showed a Papp of 974 ×10⁻⁶ cm/s.
`Cc1ccc(-c2nn(C(C)(C)C)c3ncnc(N)c23)cc1` gave a Papp of 825 ×10⁻⁶ cm/s.
With `CN=C1CN=C(c2ccc[nH]2)c2cc(Cl)ccc2N1` the Papp was 354 ×10⁻⁶ cm/s and > 1000 ×10⁻⁶ cm/s.
For `CN1CCN(c2ccc(Nc3c4ccccc4nc4ccccc34)cc2)CC1`, the Papp was greater than 1000 ×10⁻⁶ cm/s.
`CNC(=O)c1cc(Oc2ccc(NC(=O)Nc3ccc(Cl)c(C(F)(F)F)c3)c(F)c2)ccn1` gave a Papp of less than 1 ×10⁻⁶ cm/s.
With `CC(C)NC(=O)N1C[C@@H]2C[C@H](C1)c1ccc(-c3cccc(C(F)(F)F)c3)c(=O)n1C2` the Papp was 189 ×10⁻⁶ cm/s.
`Fc1ccc(Nc2nc(-c3ccncc3)ncc2-c2ccccc2)cc1F` showed a Papp of less than 1 ×10⁻⁶ cm/s.
For `O=C(Nc1ccc([S+](=O)([O-])Nc2nccs2)cc1)c1ccn[nH]1`, the Papp was less than 1 ×10⁻⁶ cm/s.
In the case of `Nc1c(C(=O)N2CCCCC2)sc(=S)n1-c1ccccc1`, the Papp is reported as greater than 1000 ×10⁻⁶ cm/s.
For `Cc1cnc(-c2ccccc2C(F)F)nc1NCc1ccc(-c2cccnc2)cc1`, the Papp was greater than 1000 ×10⁻⁶ cm/s.
With `C[S+](=O)([O-])c1ccc(-c2nc(C(=O)NCc3cccnc3)n3ccccc23)cc1` the Papp was 540 ×10⁻⁶ cm/s.
`FC(F)(F)c1cc(-c2ccc(CNc3nc(-c4ccccc4C(F)(F)F)nc4ccsc34)cc2)ccn1` showed a Papp of 455 ×10⁻⁶ cm/s.
Work on `CNc1ncc(-c2cccc3ccccc23)o1` yielded a Papp greater than 1000 ×10⁻⁶ cm/s.
Compound `CCOc1ccc(CCNC(=O)c2cc3cccnc3n2Cc2cccc(C)n2)cc1OCC` has a Papp of 744 ×10⁻⁶ cm/s.
In the case of `Cc1cc(-c2nnc3n2CCCCC3)c(C)n1-c1ccc(Br)cc1`, the Papp is reported as greater than 1000 ×10⁻⁶ cm/s.
`CCOC(=O)C1CCN(C(=O)C(C)(C)NC(=O)Nc2ccc(Cl)cc2Cl)CC1` showed a Papp of 725 ×10⁻⁶ cm/s.
Compound `O=c1[nH]c(N2CCOCC2)nc2c1CCN(Cc1cc(Cl)ccc1F)CC2` has a Papp greater than 1000 ×10⁻⁶ cm/s.
